According to US10689377B2 (Mirati Therapeutics, Inc., priority 2017, dated 2020):

target: KRas G12C (Homo sapiens, UniProt P01116, C118S/C51S/C80L/G12C); assay: KRas G12C Modification Assay (LCMS detection of covalent adduct); assay type: binding; conditions: normalized percent of control; 5 μM concentration for 3 hours
Experimental: A 10 μL aliquot of each protein solution was then transferred to a 384 well microtiter plate. Initial compound stocks were generated at fifty times their desired final assay concentration in DMSO.
Exemplary compounds of Formula (I) were diluted 25-fold into K-Ras Assay Buffer to a final of two times their final concentration. A 10 μL aliquot of each diluted compound solution was then added to each of the protein solutions in the microtiter plate to initiate reaction. […] At each time point, the reactions were quenched with 20 μL of a 25 mM acetic acid solution. […] Once all reactions were quenched, the plates were heat sealed and the samples were injected into a LC/MS system for data acquisition.
Samples were injected in their liquid phase onto a C-3 reverse phase column to remove assay buffer and prepare the samples for mass spectrometer. The proteins were eluted from the column using an acetonitrile gradient and fed directly into the mass analyzer. Initial raw data analysis took place in Agilent MassHunter software immediately post data acquisition.
Raw data analysis of the intact protein was exclusively a deconvolution of the multiple charge states of each protein in solution using a maximum entropy deconvolution provided in Mass Hunter. To minimize complexity, only the data over limited mass ranges were considered for analysis, with a minimum of one Dalton mass step intervals. The heights of all masses identified during raw data analysis were exported to be further analyzed in Spotfire® data analysis software.
Final data analysis was a multistep process in the Spotfire® data analysis software package. Briefly, each protein mass was calculated as a percent of the total signal of that sample, that percentage was then normalized to the percentage of signal of the protein in the absence of reactive compounds. Those normalized signals were reported as normalized percent of control (POC). […] Key: “A”≤25% POC; “B”>25% POC-≤50% POC; “C”>50% POC and ND=not determined.

POC | SMILES
C (“C”>50% POC) | C=C(F)C(=O)N1CCN(c2nc(OC[C@H]3C[C@@H](OC)CN3C)nc3c2CCN(c2cccc4cccc(Cl)c24)C3)C[C@@H]1CC#N [Example 576, 2-[(2S)-4-[7-(8-Chloro-1-naphthyl)-2-[[(2R,4R)-4-methoxy-1-methyl-pyrrolidin-2-yl]methoxy]-6,8-dihydro-5H-pyrido[3,4-d]pyrimidin-4-yl]-1-(2-fluoroprop-2-enoyl)piperazin-2-yl]acetonitrile]
C (“C”>50% POC) | C=C(F)C(=O)N1CCN(c2nc(OC[C@@H]3CCCN3C)nc3c2CCN(c2cccc4ccnc(C)c24)C3)C[C@@H]1CC#N [Example 592]
C (“C”>50% POC) | C=C(F)C(=O)N1CCN(c2nc(OC[C@@H]3C[C@@H](F)CN3C)nc3c2CCN(c2cccc4cccc(Cl)c24)C3)C[C@@H]1CC#N [Example 574, 2-[(2S)-4-[7-(8-Chloro-1-naphthyl)-2-[[(2S,4R)-4-fluoro-1-methyl-pyrrolidin-2-yl]methoxy]-6,8-dihydro-5H-pyrido[3,4-d]pyrimidin-4-yl]-1-(2-fluoroprop-2-enoyl)piperazin-2-yl] acetonitrile]
C (“C”>50% POC) | C=C(F)C(=O)N1CCN(c2nc(OC[C@@H]3CCCN3)nc3c2CCN(c2cccc4cccc(Cl)c24)C3)C[C@@H]1CC#N [Example 571, 2-((S)-4-(7-(8-Chloronaphthalen-1-yl)-2-((S)-pyrrolidin-2-ylmethoxy)-5,6,7,8-tetrahydropyrido[3,4-d]pyrimidin-4-yl)-1-(2-fluoroacryloyl)piperazin-2-yl)acetonitrile]

target: KRas G12C (Homo sapiens, UniProt P01116, G12C); assay: Cellular inhibition of KRas G12C measured by Phospho-ERK in NCI-H358 cells; assay type: cell-based; conditions: pERK(Thr202/Tyr204) normalized with GAPDH, NCI-H358 cells, 3 hours; read-out: IC50
How it was run: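 NCI-H358 cells treated 3 h with compound (0.5% DMSO final), then fixed and methanol-permeabilised. In-cell immunofluorescence measured pERK(Thr202/Tyr204) normalised to GAPDH as percent of DMSO control. IC50 from a 4-parameter dose-response fit.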

IC50 | SMILES
0.1 to 1000 nM | C=C(F)C(=O)N1CCN(c2nc(OC[C@H]3C[C@@H](OC)CN3C)nc3c2CCN(c2cccc4cccc(Cl)c24)C3)C[C@@H]1CC#N [Example 576, 2-[(2S)-4-[7-(8-Chloro-1-naphthyl)-2-[[(2R,4R)-4-methoxy-1-methyl-pyrrolidin-2-yl]methoxy]-6,8-dihydro-5H-pyrido[3,4-d]pyrimidin-4-yl]-1-(2-fluoroprop-2-enoyl)piperazin-2-yl]acetonitrile]
> 1000 nM | C=C(F)C(=O)N1CCN(c2nc(OC[C@@H]3CCCN3C)nc3c2CCN(c2cccc4ccnc(C)c24)C3)C[C@@H]1CC#N [Example 592]
0.1 to 1000 nM | C=C(F)C(=O)N1CCN(c2nc(OC[C@@H]3C[C@@H](F)CN3C)nc3c2CCN(c2cccc4cccc(Cl)c24)C3)C[C@@H]1CC#N [Example 574, 2-[(2S)-4-[7-(8-Chloro-1-naphthyl)-2-[[(2S,4R)-4-fluoro-1-methyl-pyrrolidin-2-yl]methoxy]-6,8-dihydro-5H-pyrido[3,4-d]pyrimidin-4-yl]-1-(2-fluoroprop-2-enoyl)piperazin-2-yl] acetonitrile]
0.1 to 1000 nM | C=C(F)C(=O)N1CCN(c2nc(OC[C@@H]3CCCN3)nc3c2CCN(c2cccc4cccc(Cl)c24)C3)C[C@@H]1CC#N [Example 571, 2-((S)-4-(7-(8-Chloronaphthalen-1-yl)-2-((S)-pyrrolidin-2-ylmethoxy)-5,6,7,8-tetrahydropyrido[3,4-d]pyrimidin-4-yl)-1-(2-fluoroacryloyl)piperazin-2-yl)acetonitrile]
0.1 to 1000 nM | C=CC(=O)N1CCN(c2nc(OCC3CN(C)CCO3)nc3c2CCN(c2cc(O)cc4ccccc24)C3)CC1 (stereo not drawn) [Example 193, 1-(4-(7-(3-hydroxynaphthalen-1-yl)-2-((4-methylmorpholin-2-yl)methoxy)-5,6,7,8-tetrahydropyrido[3,4-d]pyrimidin-4-yl)piperazin-1-yl)prop-2-en-1-one]
0.1 to 1000 nM | CN(C)C/C=C/C(=O)N1CCN(c2nc(OC[C@@H]3CCCN3C)nc3c2CCN(c2cccc(Cl)c2C(F)(F)F)C3)C[C@@H]1CC#N [Example 427]
0.1 to 1000 nM | C=CC(=O)N1CCN(c2nc(OC[C@@H]3C[C@@H](O)CN3C)nc3c2CCN(c2cccc(Cl)c2C(F)(F)F)C3)C[C@@H]1CC#N [Example 426, 2-((S)-1-acryloyl-4-(7-(3-chloro-2-(trifluoromethyl)phenyl)-2-(((2S,4R)-4-hydroxy-1-methylpyrrolidin-2-yl)methoxy)-5,6,7,8-tetrahydropyrido[3,4-d]pyrimidin-4-yl)piperazin-2-yl)acetonitrile]
0.1 to 1000 nM | C=CC(=O)N1CCN(c2nc(OC[C@@H]3COCCN3C)nc3c2CCN(c2cccc4ccccc24)C3)CC1CC#N (stereo partly drawn) [Example 445, 2-(1-Acryloyl-4-(2-(((S)-4-methylmorpholin-3-yl)methoxy)-7-(naphthalen-1-yl)-5,6,7,8-tetrahydropyrido[3,4-d]pyrimidin-4-yl)piperazin-2-yl)acetonitrile]
> 1000 nM | C=CC(=O)N1CCN(c2nc(OCCN3CCN(C(C)=O)CC3)nc3c2CCN(c2cc(O)cc4ccccc24)C3)CC1 [Example 37, 1-(4-(2-(2-(4-acetylpiperazin-1-yl)ethoxy)-7-(3-hydroxynaphthalen-1-yl)-5,6,7,8-tetrahydropyrido[3,4-d]pyrimidin-4-yl)piperazin-1-yl)prop-2-en-1-one]
0.1 to 1000 nM | C=CC(=O)N1CCN(c2nc(OC[C@@H]3CCCN3C)nc3c2CCN(c2cncc4ccccc24)C3)CC1CC#N (stereo partly drawn) [Example 260, 2-[4-[7-(4-isoquinolyl)-2-[[(2S)-1-methylpyrrolidin-2-yl]methoxy]-6,8-dihydro-5H-pyrido[3,4-d]pyrimidin-4-yl]-1-prop-2-enoyl-piperazin-2-yl]acetonitrile]
> 1000 nM | C=CC(=O)N1CCN(c2nc(OCCCN3CCOCC3)nc3c2CCN(c2ccc(O)cc2OC(F)(F)F)C3)CC1 [Example 106, 1-(4-(7-(4-hydroxy-2-(trifluoromethoxy)phenyl)-2-(3-morpholinopropoxy)-5,6,7,8-tetrahydropyrido[3,4-d]pyrimidin-4-yl)piperazin-1-yl)prop-2-en-1-one]
> 1000 nM | C=C(F)C(=O)N1CCN(c2nc(OCc3ccccn3)nc3c2CCN(c2cccc4cccc(C)c24)C3)C[C@@H]1CC#N [Example 605, 2-[(2S)-1-(2-fluoroprop-2-enoyl)-4-[7-(8-methyl-1-naphthyl)-2-(2-pyridylmethoxy)-6,8-dihydro-5H-pyrido[3,4-d]pyrimidin-4-yl]piperazin-2-yl]acetonitrile]
0.1 to 1000 nM | C=CC(=O)N1CCN(c2nc(OCCCN3CCOCC3)nc3c2CCN(c2cc(O)ccc2OC(F)(F)F)C3)CC1 [Example 90, 1-(4-(7-(5-hydroxy-2-(trifluoromethoxy)phenyl)-2-(3-morpholinopropoxy)-5,6,7,8-tetrahydropyrido[3,4-d]pyrimidin-4-yl)piperazin-1-yl)prop-2-en-1-one]
0.1 to 1000 nM | C=CC(=O)N1CCN(c2nc(OCCN3CCCC(F)(F)C3)nc3c2CCN(c2cccc4cccc(Cl)c24)C3)C[C@@H]1CC#N [Example 455, 2-[(2S)-4-[7-(8-chloro-1-naphthyl)-2-[2-(3,3-difluoro-1-piperidyl)ethoxy]-6,8-dihydro-5H-pyrido[3,4-d]pyrimidin-4-yl]-1-prop-2-enoyl-piperazin-2-yl]acetonitrile]
0.1 to 1000 nM | C=CC(=O)N1CCN(c2nc(O[C@H](C)CN3CCCCC3)nc3c2CCN(c2cc(O)cc4ccccc24)C3)CC1 [Example 75, (R)-1-(4-(7-(3-hydroxynaphthalen-1-yl)-2-((1-(piperidin-1-yl)propan-2-yl)oxy)-5,6,7,8-tetrahydropyrido[3,4-d]pyrimidin-4-yl)piperazin-1-yl)prop-2-en-1-one]
0.1 to 1000 nM | C=CC(=O)N1CCN(c2nc(OC[C@@H]3CCCN3C)nc3c2CCN(c2cccc(F)c2C)C3)CC1CC#N (stereo partly drawn) [Example 411, 2-(1-acryloyl-4-(7-(3-fluoro-2-methylphenyl)-2-(((S)-1-methylpyrrolidin-2-yl)methoxy)-5,6,7,8-tetrahydropyrido[3,4-d]pyrimidin-4-yl)piperazin-2-yl)acetonitrile]
> 1000 nM | C=CC(=O)N1CCN(c2ncnc3c2CCN(c2c(O)cccc2F)C3)CC1 [Example 4, 1-(4-(7-(2-fluoro-6-hydroxyphenyl)-5,6,7,8-tetrahydropyrido[3,4-d]pyrimidin-4-yl)piperazin-1-yl)prop-2-en-1-one]
0.1 to 1000 nM | C=CC(=O)N1CCN(c2nc(OCCCN3C[C@H]4C[C@@H]3CO4)nc3c2CCN(c2cc(O)cc4ccccc24)C3)CC1 [Example 185, 1-(4-(2-(3-((1R,4R)-2-oxa-5-azabicyclo[2.2.1]heptan-5-yl)propoxy)-7-(3-hydroxynaphthalen-1-yl)-5,6,7,8-tetrahydropyrido[3,4-d]pyrimidin-4-yl)piperazin-1-yl)prop-2-en-1-one]
0.1 to 1000 nM | C=C(F)C(=O)N1CCN(c2nc(OC[C@H]3C[C@@H](F)CN3C)nc3c2CCN(c2cccc4cccc(C)c24)C3)C[C@@H]1CC#N [Example 518, 2-[(2S)-4-[2-[[(2R,4R)-4-fluoro-1-methyl-pyrrolidin-2-yl]methoxy]-7-(8-methyl-1-naphthyl)-6,8-dihydro-5H-pyrido[3,4-d]pyrimidin-4-yl]-1-(2-fluoroprop-2-enoyl)piperazin-2-yl]acetonitrile]
0.1 to 1000 nM | C=C(C(=O)N1CCN(c2nc(OC[C@@H]3CCCN3C)nc3c2CCN(c2cccc(C)c2C)C3)C[C@@H]1CC#N)C(F)(F)F [Example 487, 2-((S)-4-(7-(2,3-dimethylphenyl)-2-(((S)-1-methylpyrrolidin-2-yl)methoxy)-5,6,7,8-tetrahydropyrido[3,4-d]pyrimidin-4-yl)-1-(2-(trifluoromethyl)acryloyl)piperazin-2-yl)acetonitrile]
0.1 to 1000 nM | C=CC(=O)N1CCN(c2nc(OCCCN3CCCCC3)nc3c2CCN(c2cc(O)cc4ccccc24)C3)CC1 [Example 38, 1-(4-(7-(3-hydroxynaphthalen-1-yl)-2-(3-(piperidin-1-yl)propoxy)-5,6,7,8-tetrahydropyrido[3,4-d]pyrimidin-4-yl)piperazin-1-yl)prop-2-en-1-one]
0.1 to 1000 nM | C=CC(=O)N1CCN(c2nc(OC[C@@H]3CCCN3C)nc3c2CCN(c2cc(F)ccc2OC(F)(F)F)C3)CC1CC#N (stereo partly drawn) [Example 225]
0.1 to 1000 nM | C=CC(=O)N1CCN(c2nc(OCC3CCN(C)C3)nc3c2CCN(c2cc(O)cc4ccccc24)C3)CC1 (stereo not drawn) [Example 89, 1-(4-(7-(3-hydroxynaphthalen-1-yl)-2-((1-methylpyrrolidin-3-yl)methoxy)-5,6,7,8-tetrahydropyrido[3,4-d]pyrimidin-4-yl)piperazin-1-yl)prop-2-en-1-one]
